Counter-ions that a name gives are not always drawn. Like-named read-outs stand apart in the source and are kept apart here.
Tests used:
[1] = biological target: T1, human dopamine transporter (DAT) (Homo sapiens, UniProt Q01959); experiment: Scintillation Proximity Assay (SPA) competition binding, [3H]WIN-35,428, hDAT-CHO membranes
T1 construct: expressed in transfected cells; host or cells: CHO (hDAT-CHO), membrane preparation

[2] = biological target: T2, human norepinephrine transporter (NET) (Homo sapiens, UniProt P23975); experiment: Scintillation Proximity Assay (SPA) competition binding, [3H]nisoxetine, hNET-CHO membranes
T2 construct: expressed in transfected cells; host or cells: CHO (hNET-CHO), membrane preparation

[3] = biological target: T3, human serotonin transporter (SERT) (Homo sapiens, UniProt P31645); experiment: Scintillation Proximity Assay (SPA) competition binding, [3H]citalopram, hSERT-CHO membranes
T3 construct: expressed in transfected cells; host or cells: CHO (hSERT-CHO), membrane preparation

[4] = biological target: human ERG potassium channel (hERG) (Homo sapiens, UniProt Q12809); experiment: cell-based
Protocol: Measure of the Effect on hERG Channel by Tail Current Recording Using In Vitro Rapid ICE™
The potency of the compounds of the invention in inhibiting human ERG potassium channel (hERG) tail current is assessed in a recombinant HEK293 cell line stably transfected with hERG cDNA using Rapid ICE™ (Rapid Ion Channel Electrophysiology) assay. Rapid ICE™ is an automated patch-clamp assay utilizing the PatchXpress 7000A system (Molecular Devices Corporation) or the QPatch HTX system (Sophion Bioscience A/S).
Briefly cells are cultivated for 24 to 72 hours before recordings in minimum essential medium supplemented with 10% FBS, 1% non-essential amino acids, 1% sodium pyruvate, 2 mM L-glutamine. The day of the experiment cells are detached with TrypLE and prepared to be loaded on the instrument. For PatchXpress cells are finally resuspended in 150 μl of Extracellular Buffer whereas for QPatch cells are resuspended in 7 ml Serum-Free Media containing 25 mM Hepes and Soybean trypsin inhibitor and immediately placed in the cell storage tank of the machine. The composition of the Extracellular Buffer is (mM): NaCl 137; KCl 4; CaCl2 1.8; MgCl2 1.0; D-glucose 10; N 2 hydroxyethylpiperazine-N′-2-ethanesulfonic acid (HEPES) 10; pH 7.4 with 1 M NaOH. The composition of the pipette solution is (mM): KCl 130; MgCl2 1.0; Ethylene glycol-bis(R-aminoethyl ether)-N,N,N′,N′-tetraacetic acid (EGTA) 5; MgATP 5; HEPES 10; pH 7.2 with 1 M KOH. The voltage protocol includes the following steps: step from −80 mV to −50 mV for 200 ms, +20 mV for 4.8 s, step to −50 mV for 5 s then step to the holding potential of −80 mV. Compounds of the invention are dissolved in DMSO and diluted in Extracellular Buffer to achieve final test concentrations (0.1, 1 and 10 μM) in 0.1% DMSO. The voltage protocol is run and recorded continuously during the experiment. The vehicle, corresponding to 0.1% DMSO in Extracellular Buffer, is then applied for 3 min followed by the test substance in triplicate. The standard combined exposure time is 5 min. The average of tail current amplitude values recorded from 4 sequential voltage pulses is used to calculate for each cell the effect of the test substance by calculating the residual current (% control) compared with vehicle pre-treatment. Data are reported as % inhibition for each concentration tested and IC50 values are estimated using DataXpress or QPatch software. At least two cells are tested, more if results diverge.

[5] = read-out: pIC50 DAT (converted)
[6] = hERG tail current, HEK293 cells, read-out: pIC50 hERG (converted)

T1 sequence (Q01959 whole entry): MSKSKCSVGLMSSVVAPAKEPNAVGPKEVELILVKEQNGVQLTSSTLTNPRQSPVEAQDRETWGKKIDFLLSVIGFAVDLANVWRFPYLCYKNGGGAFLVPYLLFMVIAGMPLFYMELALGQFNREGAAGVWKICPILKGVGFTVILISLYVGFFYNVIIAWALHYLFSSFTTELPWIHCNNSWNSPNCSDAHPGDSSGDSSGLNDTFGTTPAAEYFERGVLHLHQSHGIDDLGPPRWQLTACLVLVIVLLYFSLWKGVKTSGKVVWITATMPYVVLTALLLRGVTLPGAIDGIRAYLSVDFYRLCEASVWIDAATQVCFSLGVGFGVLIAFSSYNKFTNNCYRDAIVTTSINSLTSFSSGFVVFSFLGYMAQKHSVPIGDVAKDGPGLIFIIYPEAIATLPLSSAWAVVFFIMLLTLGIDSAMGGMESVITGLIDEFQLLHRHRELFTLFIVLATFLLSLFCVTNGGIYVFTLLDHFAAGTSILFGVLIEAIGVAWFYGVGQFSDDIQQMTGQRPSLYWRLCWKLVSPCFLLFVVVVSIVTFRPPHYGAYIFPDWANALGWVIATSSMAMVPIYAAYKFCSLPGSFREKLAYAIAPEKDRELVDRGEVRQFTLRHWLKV
T2 sequence (P23975 whole entry): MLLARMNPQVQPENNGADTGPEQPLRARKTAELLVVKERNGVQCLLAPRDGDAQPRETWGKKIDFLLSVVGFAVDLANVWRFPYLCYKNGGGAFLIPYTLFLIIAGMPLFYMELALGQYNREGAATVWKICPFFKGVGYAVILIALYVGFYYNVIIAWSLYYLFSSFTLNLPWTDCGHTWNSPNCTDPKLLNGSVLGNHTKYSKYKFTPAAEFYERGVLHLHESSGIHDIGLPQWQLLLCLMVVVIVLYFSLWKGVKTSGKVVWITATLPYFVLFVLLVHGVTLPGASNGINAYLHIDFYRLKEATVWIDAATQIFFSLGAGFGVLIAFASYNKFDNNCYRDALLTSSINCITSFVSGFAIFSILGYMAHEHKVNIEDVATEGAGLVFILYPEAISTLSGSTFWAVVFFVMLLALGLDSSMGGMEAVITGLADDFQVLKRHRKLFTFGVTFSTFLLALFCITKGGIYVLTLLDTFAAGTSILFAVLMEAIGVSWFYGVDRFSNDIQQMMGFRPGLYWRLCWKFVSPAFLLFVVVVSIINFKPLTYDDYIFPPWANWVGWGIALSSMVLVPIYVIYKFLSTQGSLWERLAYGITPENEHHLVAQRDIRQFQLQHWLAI
Chain of human ERG potassium channel (hERG) (Q12809 whole entry): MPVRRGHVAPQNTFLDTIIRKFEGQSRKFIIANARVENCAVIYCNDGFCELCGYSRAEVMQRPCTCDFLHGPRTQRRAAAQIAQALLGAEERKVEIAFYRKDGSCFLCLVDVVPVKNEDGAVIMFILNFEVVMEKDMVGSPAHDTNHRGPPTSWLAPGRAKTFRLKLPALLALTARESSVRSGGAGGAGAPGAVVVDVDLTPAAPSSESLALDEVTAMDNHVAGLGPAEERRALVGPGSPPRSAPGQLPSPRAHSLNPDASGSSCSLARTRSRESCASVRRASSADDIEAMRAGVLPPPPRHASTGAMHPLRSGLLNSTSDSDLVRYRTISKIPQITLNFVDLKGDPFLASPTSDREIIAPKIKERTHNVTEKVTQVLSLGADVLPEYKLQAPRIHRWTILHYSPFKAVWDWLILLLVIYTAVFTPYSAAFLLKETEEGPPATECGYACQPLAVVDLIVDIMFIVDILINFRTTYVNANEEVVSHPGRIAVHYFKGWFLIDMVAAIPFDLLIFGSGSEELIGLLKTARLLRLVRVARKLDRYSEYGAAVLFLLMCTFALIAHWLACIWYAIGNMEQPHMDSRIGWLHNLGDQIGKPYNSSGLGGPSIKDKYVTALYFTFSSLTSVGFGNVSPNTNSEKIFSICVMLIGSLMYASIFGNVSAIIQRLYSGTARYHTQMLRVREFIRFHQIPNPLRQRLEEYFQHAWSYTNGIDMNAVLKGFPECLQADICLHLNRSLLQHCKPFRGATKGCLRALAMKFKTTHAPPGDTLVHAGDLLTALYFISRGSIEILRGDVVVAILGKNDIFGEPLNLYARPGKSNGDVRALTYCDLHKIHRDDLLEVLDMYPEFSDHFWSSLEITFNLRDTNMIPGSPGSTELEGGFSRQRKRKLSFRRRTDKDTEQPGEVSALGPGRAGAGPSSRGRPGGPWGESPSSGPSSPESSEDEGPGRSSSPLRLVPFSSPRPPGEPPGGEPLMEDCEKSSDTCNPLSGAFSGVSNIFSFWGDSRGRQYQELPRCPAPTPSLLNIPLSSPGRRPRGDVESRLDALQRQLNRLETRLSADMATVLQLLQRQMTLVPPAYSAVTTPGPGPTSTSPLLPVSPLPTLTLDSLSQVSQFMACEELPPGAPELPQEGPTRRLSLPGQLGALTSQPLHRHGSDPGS
T3 sequence (P31645 whole entry): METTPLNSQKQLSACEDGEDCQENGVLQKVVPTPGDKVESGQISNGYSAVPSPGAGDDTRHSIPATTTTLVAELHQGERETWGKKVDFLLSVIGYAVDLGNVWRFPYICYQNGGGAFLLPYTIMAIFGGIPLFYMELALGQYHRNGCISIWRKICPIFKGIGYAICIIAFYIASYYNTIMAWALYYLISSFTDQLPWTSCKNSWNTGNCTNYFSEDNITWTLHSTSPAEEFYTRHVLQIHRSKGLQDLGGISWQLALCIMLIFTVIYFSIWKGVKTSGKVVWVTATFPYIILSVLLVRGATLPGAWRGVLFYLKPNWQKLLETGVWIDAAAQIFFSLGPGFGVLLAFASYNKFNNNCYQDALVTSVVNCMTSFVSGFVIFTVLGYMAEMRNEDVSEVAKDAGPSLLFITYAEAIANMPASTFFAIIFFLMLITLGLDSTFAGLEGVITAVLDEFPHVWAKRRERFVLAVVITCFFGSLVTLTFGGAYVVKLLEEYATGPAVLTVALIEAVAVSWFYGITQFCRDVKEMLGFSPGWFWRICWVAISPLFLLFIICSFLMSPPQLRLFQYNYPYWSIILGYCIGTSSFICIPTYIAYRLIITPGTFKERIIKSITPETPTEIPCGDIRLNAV

| SMILES | IC50 [1, 5] [µM] | IC50 [2] [µM] | IC50 [3] [µM] | IC50 [4, 6] [µM] | IC50 ([1]; pIC50 DAT) [µM] | IC50 [4] [µM] |
| --- | --- | --- | --- | --- | --- | --- |
| O=C1CCNC[C@@]12CCN(C(c1ccc(F)cc1)c1ccc(F)cc1)C2 (single isomer, unassigned) [Example 7, (5R or 5S)-2-[bis(4-fluorophenyl)methyl]-2,7-diazaspiro[4.5]decan-10-one] | 0.162 | 2.14 | 14.1 |  |  |  |
| O=C1CCNC[C@]12CCN(C(c1ccc(F)cc1)c1ccc(F)cc1)C2 (single isomer, unassigned) [Example 8, (5S or 5R)-2-[bis(4-fluorophenyl)methyl]-2,7-diazaspiro[4.5]decan-10-one] | 0.132 | 1.38 | 7.41 |  |  |  |
| O=C1CCNC[C@@]12CCN(C(c1ccc(F)cc1)c1ccc(F)cc1)C2 (single isomer, unassigned) [Example 9, (5R or 5S)-2-[bis(4-fluorophenyl)methyl]-2,7-diazaspiro[4.5]decan-10-one dihydrochloride salt] | 0.263 | 2.4 | 10.7 | 5.01 |  |  |
| O=C1CCNC[C@]12CCN(C(c1ccc(F)cc1)c1ccc(F)cc1)C2 (single isomer, unassigned) [Example 10, (5S or 5R)-2-[bis(4-fluorophenyl)methyl]-2,7-diazaspiro[4.5]decan-10-one dihydrochloride salt] | 0.148 | 6.46 | 15.5 | 5.01 |  |  |
| ON=C1CCNCC12CCN(C(c1ccc(F)cc1)c1ccc(F)cc1)C2 (single isomer, unassigned) [Example 16, N-[(5S or 5R,10E)-2-[bis(4-fluorophenyl)methyl]-2,7-diazaspiro[4.5]decan-10-ylidene]hydroxylamine] |  | 6.31 | 6.61 |  | 0.049 | 2.51 |
| Fc1ccc(C(c2ccc(F)cc2)N2CC[C@]3(CNCCC3(F)F)C2)cc1 (single isomer, unassigned) [Example 17, (5S or 5R)-2-[bis(4-fluorophenyl)methyl]-10,10-difluoro-2,7-diazaspiro[4.5]decane] |  | 1.07 | 13.2 |  | 0.0229 | 3.16 |
| FC1=CCNC[C@]12CCN(C(c1ccc(F)cc1)c1ccc(F)cc1)C2 (single isomer, unassigned) [Example 18, (5S or 5R)-2-[bis(4-fluorophenyl)methyl]-10-fluoro-2,7-diazaspiro[4.5]dec-9-ene] |  | 1.86 | 9.33 |  | 0.0302 | 3.16 |
| O=C1CCNCC12CCN(C(c1ccc(F)cc1)c1ccc(F)cc1)C2 (stereo not shown) [Example 1, 2-[bis(4-fluorophenyl)methyl]-2,7-diazaspiro[4.5]decan-10-one] | 0.129 | 3.8 | 22.4 |  |  | 2 |
| CN1CCC(=O)C2(CCN(C(c3ccc(F)cc3)c3ccc(F)cc3)C2)C1 (stereo not shown) [Example 2, 2-[bis(4-fluorophenyl)methyl]-7-methyl-2,7-diazaspiro[4.5]decan-10-one] | 0.372 | 22.4 | 21.9 |  |  | 7.94 |
| Fc1ccc(C(c2ccc(F)cc2)N2CCC3(CNCCC34OCCO4)C2)cc1 (stereo not shown) [Example 6, 8-[bis(4-fluorophenyl)methyl]-1,4-dioxa-8,12-diazadispiro[4.0.4^6.4^5]tetradecane] | 0.309 | 4.47 | 3.39 |  |  |  |
| Fc1ccc(C(c2ccc(F)cc2)N2CCC3(CCNCC34OCCO4)C2)cc1 (stereo not shown) [Example 20, 8-[bis(4-fluorophenyl)methyl]-1,4-dioxa-8,13-diazadispiro[4.0.4^6.4^5]tetradecane] |  | 2 | 2.09 |  | 0.0288 |  |
| OC1CNCCC12CCN(C(c1ccc(F)cc1)c1ccc(F)cc1)C2 (stereo not shown) [Example 21, 2-[bis(4-fluorophenyl)methyl]-2,8-diazaspiro[4.5]decan-6-ol] | 0.186 | 6.03 | 6.76 |  |  |  |
| CN1CCCC2(CCN(C(c3ccc(F)cc3)c3ccc(F)cc3)C2)C1 (stereo not shown) [Example 23, 2-[bis(4-fluorophenyl)methyl]-7-methyl-2,7-diazaspiro[4.5]decane] | 0.115 | 5.01 | 4.27 |  |  |  |
| Fc1ccc(C(c2ccc(F)cc2)N2CCCC3(CCNCC3)C2)cc1 [Example 25, 2-[bis(4-fluorophenyl)methyl]-2,9-diazaspiro[5.5]undecane] | 0.363 | 2.4 | 1.58 |  |  |  |
| Fc1ccc(C(c2ccc(F)cc2)N2CCC3(CCCNC3)CC2)cc1 [Example 26, 9-[bis(4-fluorophenyl)methyl]-2,9-diazaspiro[5.5]undecane] | 0.135 | 2 | 5.25 |  |  |  |
| Fc1ccc(C(c2ccc(F)cc2)N2CCC3(CC2)CNCCS3)cc1 [Example 32, 9-[bis(4-fluorophenyl)methyl]-1-thia-4,9-diazaspiro[5.5]undecane] |  | 2.45 | 2.34 |  | 0.0589 |  |

More lines, main results first:

| IC50 [1, 5] [µM] | IC50 [2] [µM] | IC50 [3] [µM] | SMILES | IC50 [4, 6] [µM] | IC50 ([1]; pIC50 DAT) [µM] | IC50 [4] [µM] |
| --- | --- | --- | --- | --- | --- | --- |
| 0.145 | 3.24 | 7.41 | COC1CCNCC12CCN(C(c1ccc(F)cc1)c1ccc(F)cc1)C2 (mixture of isomers) [Example 5, 2-[bis(4-fluorophenyl)methyl]-10-methoxy-2,7-diazaspiro[4.5]decane] |  |  |  |
| 0.224 | 3.55 | 12.9 | O[C@@H]1CCNC[C@]12CCN(C(c1ccc(F)cc1)c1ccc(F)cc1)C2 (single isomer, unassigned) [Example 11, 2-[bis(4-fluorophenyl)methyl]-2,7-diazaspiro[4.5]decan-10-ol] |  |  |  |
| 0.302 | 7.94 | 17 | O[C@@H]1CCNC[C@]12CCN(C(c1ccc(F)cc1)c1ccc(F)cc1)C2 (single isomer, unassigned) [Example 12, 2-[bis(4-fluorophenyl)methyl]-2,7-diazaspiro[4.5]decan-10-ol] |  |  |  |
| 0.174 | 4.27 | 19.5 | O[C@@H]1CCNC[C@@]12CCN(C(c1ccc(F)cc1)c1ccc(F)cc1)C2 (single isomer, unassigned) [Example 13, 2-[bis(4-fluorophenyl)methyl]-2,7-diazaspiro[4.5]decan-10-ol] |  |  |  |
| 0.2 | 1.74 | 22.4 | O[C@@H]1CCNC[C@@]12CCN(C(c1ccc(F)cc1)c1ccc(F)cc1)C2 (single isomer, unassigned) [Example 14, 2-[bis(4-fluorophenyl)methyl]-2,7-diazaspiro[4.5]decan-10-ol] |  |  |  |
| 0.204 | 2 | 4.79 | CO/N=C1\CCNC[C@]12CCN(C(c1ccc(F)cc1)c1ccc(F)cc1)C2 (single isomer, unassigned) [Example 15, (5S or 5R,10E)-2-[bis(4-fluorophenyl)methyl]-N-methoxy-2,7-diazaspiro[4.5]decan-10-imine] |  |  |  |
| 0.204 | 3.31 | 1.78 | O=C1CCNCC12CCN(C(c1ccc(Cl)cc1)c1ccc(Cl)cc1)C2 (stereo not shown) [Example 19, 2-[bis(4-chlorophenyl)methyl]-2,7-diazaspiro[4.5]decan-10-one] |  |  |  |
| 0.11 | 5.75 | 6.46 | Fc1ccc(C(c2ccc(F)cc2)N2CCC3(CCCNC3)C2)cc1 (stereo not shown) [Example 22, 2-[bis(4-fluorophenyl)methyl]-2,7-diazaspiro[4.5]decane] |  |  |  |
| 0.537 | 0.295 | 11 | Fc1ccc(C(c2ccc(F)cc2)N2CCCC3(CCNC3)C2)cc1 (stereo not shown) [Example 24, 7-[bis(4-fluorophenyl)methyl]-2,7-diazaspiro[4.5]decane] |  |  |  |
| 0.316 | 1.23 | 0.676 | Clc1ccc(C(c2ccc(Cl)cc2)N2CCC3(CCNCC3)C2)cc1 [Example 28, 2-[bis(4-chlorophenyl)methyl]-2,8-diazaspiro[4.5]decane] |  |  |  |
| 0.151 | 2.4 | 0.912 | Clc1ccc(C(c2ccc(Cl)cc2)N2CCC3(CNCCO3)C2)cc1 (stereo not shown) [Example 30, 2-[bis(4-chlorophenyl)methyl]-6-oxa-2,9-diazaspiro[4.5]decane] |  |  |  |

Reference: patent publication US20170260185A1 (priority 2014, published 2017)
